Source: BigSolDB 2.1

Cn1cnc2c1c(=O)[nH]c(=O)n2C
Settings	solubility (mole fraction)
in acetone, 288.13 K	1.47e-05
in acetone, 297.99 K	2.23e-05
in acetone, 308.08 K	2.99e-05
in acetone, 318.07 K	4.57e-05
in acetone, 328.17 K	6.77e-05
in ethanol, 288.15 K	1.38e-05
in ethanol, 298.2 K	2.26e-05
in ethanol, 308.19 K	3.85e-05
in ethanol, 318.16 K	6.31e-05
in ethanol, 328.16 K	0.000106
in ethyl acetate, 288.13 K	1.04e-05
in ethyl acetate, 297.99 K	1.59e-05
in ethyl acetate, 308.08 K	2.28e-05
in ethyl acetate, 318.07 K	3.33e-05
in ethyl acetate, 328.17 K	4.94e-05
in methanol, 288.07 K	2.82e-05
in methanol, 298.1 K	4.34e-05
in methanol, 308.93 K	7e-05
in methanol, 318.62 K	0.00011
in methanol, 328.15 K	0.000163
in n-propanol, 288.15 K	1.18e-05
in n-propanol, 298.2 K	2.06e-05
in n-propanol, 308.19 K	3.71e-05
in n-propanol, 318.16 K	6.37e-05
in n-propanol, 328.16 K	0.000109
in water, 288.07 K	3.09e-05
in water, 298.1 K	4.73e-05
in water, 308.93 K	6.93e-05
in water, 318.62 K	0.0001
in water, 328.15 K	0.000145

Cn1c(=O)c2[nH]cnc2n(C)c1=O
Settings	solubility (mole fraction)
in acetone, 288.02 K	0.000667
in acetone, 298.15 K	0.00093
in acetone, 308.15 K	0.00124
in acetone, 318.15 K	0.00147
in acetone, 328.1 K	0.0018
in ethanol, 288.01 K	0.0008
in ethanol, 297.95 K	0.00116
in ethanol, 308.01 K	0.00173
in ethanol, 318.11 K	0.00254
in ethanol, 328.09 K	0.00319
in ethyl acetate, 288.02 K	0.000502
in ethyl acetate, 298.15 K	0.000673
in ethyl acetate, 308.15 K	0.000901
in ethyl acetate, 318.15 K	0.0011
in ethyl acetate, 328.1 K	0.00141
in methanol, 288.06 K	0.00077
in methanol, 298.16 K	0.00137
in methanol, 308.16 K	0.00217
in methanol, 318.13 K	0.00298
in methanol, 328.19 K	0.00394
in n-propanol, 288.01 K	0.000912
in n-propanol, 297.95 K	0.00136
in n-propanol, 308.01 K	0.00204
in n-propanol, 318.11 K	0.00313
in n-propanol, 328.09 K	0.00423
in water, 288.06 K	0.000325
in water, 298.16 K	0.00063
in water, 308.16 K	0.000991
in water, 318.13 K	0.00141
in water, 328.19 K	0.00216
